Assay results taken from patent US9731027B2, “Somatostatin-dopamine chimeric analogs” (Ipsen Pharma S.A.S., priority 2012, dated 2017).
Where two headings read alike, the source gives them in different places. Bridge positions count the residues as written; N and C are the ends. Square brackets hold non-standard residues; d marks the D form. Peptide text beside a SMILES is read from it. * marks the point of attachment. X2 = CN1C[C@H](CSCC(=O)*)C[C@@H]2c3cccc4[nH]cc(c34)C[C@H]21

Tests used:
hSSTR2 [1] = molecular target: T1, hSSTR2 (Homo sapiens, UniProt P30874); assay: Somatostatin receptor radioligand binding assay, hSSTR2
T1 construct: host or cells: 'Cells expressing hSSTR2'
T1 sequence (P30874 whole entry): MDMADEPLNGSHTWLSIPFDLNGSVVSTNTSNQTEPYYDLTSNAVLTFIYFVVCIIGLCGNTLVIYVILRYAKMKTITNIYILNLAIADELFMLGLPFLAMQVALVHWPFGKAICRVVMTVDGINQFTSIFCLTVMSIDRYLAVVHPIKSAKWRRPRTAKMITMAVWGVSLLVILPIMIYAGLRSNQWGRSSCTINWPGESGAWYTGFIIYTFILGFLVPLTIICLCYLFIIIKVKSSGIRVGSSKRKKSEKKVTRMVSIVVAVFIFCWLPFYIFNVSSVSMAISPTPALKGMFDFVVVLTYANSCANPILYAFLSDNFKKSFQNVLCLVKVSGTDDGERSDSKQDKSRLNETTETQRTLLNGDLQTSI
Method: The affinities of a test compound for the human somatostatin receptors were determined by radioligand binding assays in CHO-K1 cells stably transfected with each of the human somatostatin receptor subtypes, hSSTR1-5. The cDNA coding sequences of hSSTR1 (GenBank accession No. NM_001049.1), hSSTR2 (GenBank accession No. XM_012697.1), hSSTR3 (GenBank accession No. XM_009963.1), hSSTR4 (GenBank accession No. NM_001052.1), and hSSTR5 (GenBank accession No. XM_012565.1) were subcloned into the mammalian expression vector pcDNA3.1 (Life Technologies). Clonal cell lines stably expressing each of the somatostatin receptors were obtained by transfection into CHO-K1 cells (ATCC) and subsequently selected with culture media containing 0.8 mg/mL of G418 (Life Technologies).
Membranes for in vitro receptor binding assays were obtained by the following procedures. […] The supernatant containing the plasma membranes was centrifuged at 100,000×g for 30 minutes and the pellet was resuspended in buffer containing 20 mM glycine-glycine, 1 mM MgCl2, 250 mM sucrose, pH 7.2, for storage at −80° C. […]

hSSTR2 [2] = molecular target: T1, hSSTR2; assay: Intracellular calcium mobilization assay (FLIPR Calcium 4), hSSTR2; assay type: cell-based
Method: The ability of select compounds according to the present invention to activate hSSTR2 and hDRD2 was determined by the intracellular calcium mobilization assay using FLIPR Calcium 4 assay kit (Molecular Devices).
Cells expressing hSSTR2 or hDRD2 were plated in 384-well microplates in tissue culture media and incubated for 16-24 hours at 37° C. in a humidified atmosphere with 5% CO2. Medium was replaced by loading buffer containing Hank's buffered saline, 20 mM HEPES, 2.5 mM probenecid and Calcium 4 dye, and the plates were incubated at 37° C. for 60 minutes.

[3] = test system: pituitary tumor cells of acromegalic patients presenting with macroadenoma; assay: Human pituitary adenoma cell growth hormone release assay; assay type: cell-based; settings: 18 hours incubation, AlphaLISA GH immunoassay; FIG. 5
Method: FIG. 1 is a graph showing the Growth hormone suppressing activity of Compound 4 (see Table I hereinbelow for its chemical name and its corresponding structural representation) on pituitary tumor cells of acromegalic patients presenting with macroadenoma. Various concentrations of Compound 4 were added to the medium and the cells were incubated for 18 hours before measurement of Growth hormone levels in the medium using the AlphaLISA Growth Hormone Immunoassay Research kit (PerkinElmer).
Various concentrations of Compounds 4 and 5 were added to the medium and the cells were incubated for 18 hours before measurement of Growth hormone levels in the medium using the AlphaLISA Growth Hormone Immunoassay Research kit (PerkinElmer).
Acromegalic patients presenting with macroadenoma underwent transsphenoidal surgery and a portion of each tumor obtained at surgery was dissociated by enzymatic and mechanical methods. The cells were cultured in DMEM medium supplemented with 10% FBS and antibiotics for 3 days. The cells were then plated in multi-well tissue culture dishes coated with extracellular matrix from bovine endothelial corneal cells at a density of 3-5×10^4 cells/well in DMEM supplemented with 10% FBS and antibiotics. After 2-3 days of culture, the medium was changed to DMEM supplemented with 1% FBS, antibiotics and 1% ITS (insulin, transferrin and selenium).

C[C@@H](O)[C@@H]1NC(=O)[C@H](CCCCN)NC(=O)[C@@H](Cc2c[nH]c3ccccc23)NC(=O)[C@H](Cc2ccc(O)cc2)NC(=O)[C@H](Cc2ccncc2)NC(=O)[C@H](CCCNC(=N)N)NC(=O)[C@H](NC[C@@H](Cc2ccc(O)cc2)NC(=O)CSC[C@@H]2C[C@@H]3c4cccc5[nH]cc(c45)C[C@H]3N(C)C2)CCCCNC(=O)[C@H](Cc2ccccc2)NC1=O [Compound 46, Dop1-DTyr-psi(CH2NH)-cyclo(DLys-Arg-4Pal-Tyr-DTrp-Lys-Thr-Phe)]
Ki (hSSTR2 [1]; CHO-K1 membranes, [125I-Tyr]-seglitide, read-out: hSSTR2 Ki (nM) ± SEM): 0.52 ± 0.06 nM | EC50 (hSSTR2 [2]; calcium mobilization, cells expressing hSSTR2, read-out: hSSTR2 EC50 (nM) ± SEM): 60 nM

C[C@@H](O)[C@@H]1NC(=O)[C@H](CCCCN)NC(=O)[C@@H](Cc2c[nH]c3ccccc23)NC(=O)[C@H](Cc2ccccc2)NC(=O)[C@H](Cc2ccccc2)NC(=O)[C@H](CCCNC(=N)N)NC(=O)[C@H](NC(=O)CSC[C@@H]2C[C@@H]3c4cccc5[nH]cc(c45)C[C@H]3N(C)C2)CCCCNC(=O)[C@H](Cc2ccccc2)NC1=O [Compound 44, Dop1-cyclo(DLys-Arg-Phe-Phe-DTrp-Lys-Thr-Phe)] (X2-[dK]RFF[dW]KTF; lactam 1-C)
Emax (hSSTR2 [2]; read-out: hSSTR2 % Emax ± SEM): 97.1 ± 5.9%

C[C@@H](O)[C@@H]1NC(=O)[C@H](CCCCN)NC(=O)[C@@H](Cc2c[nH]c3ccccc23)NC(=O)[C@H](Cc2ccncc2)NC(=O)[C@H](Cc2ccccc2)NC(=O)[C@H](CCCNC(=N)N)NC(=O)[C@H](NC[C@H](Cc2ccc(O)cc2)NC(=O)CSC[C@@H]2C[C@@H]3c4cccc5[nH]cc(c45)C[C@H]3N(C)C2)CCCCNC(=O)[C@H](Cc2ccccc2)NC1=O [Compound 4, Dop1-Tyr-psi(CH2NH)-cyclo(DLys-Arg-Phe-4Pal-DTrp-Lys-Thr-Phe)]
Growth hormone suppressing activity compared to the parent somatostatin analogs [3]: enhanced Growth hormone suppressing activity

C[C@@H](O)[C@@H]1NC(=O)[C@H](CCCCN)NC(=O)[C@@H](Cc2c[nH]c3ccccc23)NC(=O)[C@H](Cc2ccccc2)NC(=O)[C@H](Cc2ccccc2)NC(=O)[C@H](CCCNC(=N)N)NC(=O)[C@H](NC[C@H](Cc2ccc(O)cc2)NC(=O)CSC[C@@H]2C[C@@H]3c4cccc5[nH]cc(c45)C[C@H]3N(C)C2)CCCCNC(=O)[C@H](Cc2ccc(F)cc2)NC1=O [Compound 5, Dop1-Tyr-psi(CH2NH)-cyclo(DLys-Arg-Phe-Phe-DTrp-Lys-Thr-4FPhe)]
Growth hormone suppressing activity compared to the parent somatostatin analogs [3]: enhanced Growth hormone suppressing activity

C[C@@H](O)[C@@H]1NC(=O)[C@H](CCCCN)NC(=O)[C@@H](Cc2c[nH]c3ccccc23)NC(=O)[C@H](Cc2ccccc2)NC(=O)[C@H](Cc2ccccc2)NC(=O)[C@H](CCCNC(=N)N)NC(=O)[C@@H](NC[C@H](Cc2ccc(O)cc2)NC(=O)CSC[C@@H]2C[C@@H]3c4cccc5[nH]cc(c45)C[C@H]3N(C)C2)CCCNC(=O)[C@H](Cc2ccccc2)NC1=O [Compound 43, Dop1-Tyr-psi(CH2NH)-cyclo(Orn-Arg-Phe-Phe-DTrp-Lys-Thr-Phe)]
Ki (hSSTR2 [1]): 1.07 ± 0.39 nM | EC50 (hSSTR2 [2]): 31.6 ± 4.3 nM
